Patent US10669242B2 (priority 2016, dated 2020)

What follows are compounds tested against T1, recombinant glucosyltransferase domain of C. difficile Toxin B/TcdB (Clostridioides difficile, UniProt P18177) (assay: biochemical).
T1 construct: 6-His (C); purchased R&D Systems 6246-GT
T1 sequence (P18177 1-543): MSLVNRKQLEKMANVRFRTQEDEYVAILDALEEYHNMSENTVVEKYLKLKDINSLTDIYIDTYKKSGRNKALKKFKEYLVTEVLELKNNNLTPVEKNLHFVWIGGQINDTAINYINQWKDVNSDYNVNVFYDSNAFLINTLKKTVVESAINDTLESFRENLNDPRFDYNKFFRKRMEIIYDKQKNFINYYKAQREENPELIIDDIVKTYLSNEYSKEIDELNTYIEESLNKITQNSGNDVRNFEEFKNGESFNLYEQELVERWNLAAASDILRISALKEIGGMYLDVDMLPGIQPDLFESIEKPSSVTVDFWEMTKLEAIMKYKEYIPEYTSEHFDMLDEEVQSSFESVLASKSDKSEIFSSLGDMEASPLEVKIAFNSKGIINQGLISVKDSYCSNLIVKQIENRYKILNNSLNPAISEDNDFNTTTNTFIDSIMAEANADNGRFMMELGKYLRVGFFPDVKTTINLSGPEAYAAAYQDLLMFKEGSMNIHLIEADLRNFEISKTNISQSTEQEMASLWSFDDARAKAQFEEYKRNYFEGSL
`Cc1cccnc1NC(=O)c1ccc(CN2C(=O)c3ccc(Cl)cc3NC(=O)[C@H]2Cc2cccnc2)cc1` [Example 4k, (R)-4-((8-chloro-2,5-dioxo-3-(pyridin-3-ylmethyl)-2,3-dihydro-1H-benzo[e][1,4]diazepin-4(5H)-yl)methyl)-N-(3-methylpyridin-2-yl)benzamide] was tested, and the IC50 was 100 to 999 nM. With `COc1ccc2c(c1)NC(=O)[C@@H](Cc1ccc(Cl)c(Cl)c1)N(Cc1ccc(C(=O)Nc3ccccn3)cc1)C2=O` [Example 4l, (R)-4-((3-(3,4-dichlorobenzyl)-8-methoxy-2,5-dioxo-2,3-dihydro-1H-benzo[e][1,4]diazepin-4(5H)-yl)methyl)-N-(pyridin-2-yl)benzamide] the IC50 was < 100 nM. With `CN(C(=O)c1ccc(CN2C(=O)c3ccc(Cl)cc3NC(=O)[C@H]2Cc2cccnc2)cc1)c1ccccn1` [Example 4m, (R)-4-((8-chloro-2,5-dioxo-3-(pyridin-3-ylmethyl)-2,3-dihydro-1H-benzo[e][1,4]diazepin-4(5H)-yl)methyl)-N-methyl-N-(pyridin-2-yl)benzamide] the IC50 was 100 to 999 nM. `Cc1ccc(NC(=O)c2ccc(CN3C(=O)c4ccc(Cl)cc4NC(=O)[C@H]3Cc3cccnc3)cc2)nc1` [Example 4n, (R)-4-((8-chloro-2,5-dioxo-3-(pyridin-3-ylmethyl)-2,3-dihydro-1H-benzo[e][1,4]diazepin-4(5H)-yl)methyl)-N-(5-methylpyridin-2-yl)benzamide] was tested, and the IC50 was < 100 nM. `Cc1cccc(NC(=O)c2ccc(CN3C(=O)c4ccc(Cl)cc4NC(=O)[C@H]3Cc3cccnc3)cc2)n1` [Example 4o, (R)-4-((8-chloro-2,5-dioxo-3-(pyridin-3-ylmethyl)-2,3-dihydro-1H-benzo[e][1,4]diazepin-4(5H)-yl)methyl)-N-(6-methylpyridin-2-yl)benzamide] showed an IC50 of 10000 to 35000 nM. In the case of `COc1ccc2c(c1)NC(=O)[C@@H](Cc1cccnc1)N(Cc1ccc(C(=O)Nc3ccccn3)cc1)C2=O` [Example 4p, (R)-4-((8-methoxy-2,5-dioxo-3-(pyridin-3-ylmethyl)-2,3-dihydro-1H-benzo[e][1,4]diazepin-4(5H)-yl)methyl)-N-(pyridin-2-yl)benzamide], the IC50 is reported as < 100 nM. In the case of `O=C(Nc1ccccn1)c1ccc(CN2C(=O)c3ccc(F)cc3NC(=O)[C@H]2Cc2ccc(Cl)c(Cl)c2)cc1` [Example 4q, (R)-4-((3-(3,4-dichlorobenzyl)-8-fluoro-2,5-dioxo-2,3-dihydro-1H-benzo[e][1,4]diazepin-4(5H)-yl)methyl)-N-(pyridin-2-yl)benzamide], the IC50 is reported as 100 to 999 nM. For `O=C(Nc1cc(Cl)ccn1)c1ccc(CN2C(=O)c3ccc(Cl)cc3NC(=O)[C@H]2Cc2cccnc2)cc1` [Example 4r, (R)-4-((8-chloro-2,5-dioxo-3-(pyridin-3-ylmethyl)-2,3-dihydro-1H-benzo[e][1,4]diazepin-4(5H)-yl)methyl)-N-(4-chloropyridin-2-yl)benzamide], the IC50 was < 100 nM. With `Cc1ccnc(NC(=O)c2ccc(CN3C(=O)c4ccc(Cl)cc4NC(=O)[C@H]3Cc3cccnc3)cc2)c1` [Example 4s, (R)-4-((8-chloro-2,5-dioxo-3-(pyridin-3-ylmethyl)-2,3-dihydro-1H-benzo[e][1,4]diazepin-4(5H)-yl)methyl)-N-(4-methylpyridin-2-yl)benzamide] the IC50 was < 100 nM. For `O=C(Nc1ccncn1)c1ccc(CN2C(=O)c3ccc(Cl)cc3NC(=O)[C@H]2Cc2cccnc2)cc1` [Example 4t, (R)-4-((8-chloro-2,5-dioxo-3-(pyridin-3-ylmethyl)-2,3-dihydro-1H-benzo[e][1,4]diazepin-4(5H)-yl)methyl)-N-(pyrimidin-4-yl)benzamide], the IC50 was < 100 nM. With `O=C(Nc1ccccn1)c1ccc(CN2C(=O)c3ccc(Cl)cc3NC(=O)[C@H]2Cc2ccncc2)cc1` [Example 4u, (R)-4-((8-chloro-2,5-dioxo-3-(pyridin-4-ylmethyl)-2,3-dihydro-1H-benzo[e][1,4]diazepin-4(5H)-yl)methyl)-N-(pyridin-2-yl)benzamide] the IC50 was 100 to 999 nM. For `O=C(Nc1ccccn1)c1ccc(CN2C(=O)c3ccc(Cl)cc3NC(=O)[C@H]2Cc2ccccn2)cc1` [Example 4v, (R)-4-((8-chloro-2,5-dioxo-3-(pyridin-2-ylmethyl)-2,3-dihydro-1H-benzo[e][1,4]diazepin-4(5H)-yl)methyl)-N-(pyridin-2-yl)benzamide], the IC50 was < 100 nM. With `O=C(Nc1ccccn1)c1ccc(CN2C(=O)c3ccc(Cl)cc3NC(=O)[C@H]2Cc2ccccc2Cl)cc1` [Example 4w, (R)-4-((8-chloro-3-(2-chlorobenzyl)-2,5-dioxo-2,3-dihydro-1H-benzo[e][1,4]diazepin-4(5H)-yl)methyl)-N-(pyridin-2-yl)benzamide] the IC50 was < 100 nM. In the case of `Cc1ccc(NC(=O)c2ccc(CN3C(=O)c4ccc(Cl)cc4NC(=O)[C@H]3Cc3ccccn3)cc2)nc1` [Example 4x, (R)-4-((8-chloro-2,5-dioxo-3-(pyridin-2-ylmethyl)-2,3-dihydro-1H-benzo[e][1,4]diazepin-4(5H)-yl)methyl)-N-(5-methylpyridin-2-yl)benzamide], the IC50 is reported as < 100 nM. In the case of `C[C@@H]1C(=O)Nc2cc(Cl)ccc2C(=O)N1Cc1ccc(C(=O)N2CCc3cccnc32)cc1` [Example 4y, (R)-8-chloro-4-(4-(2,3-dihydro-1H-pyrrolo[2,3-b]pyridine-1-carbonyl)benzyl)-3-methyl-3,4-dihydro-1H-benzo[e][1,4]diazepine-2,5-dione], the IC50 is reported as < 100 nM. With `C[C@@H]1C(=O)Nc2cc(Cl)ccc2C(=O)N1Cc1ccc(C(=O)Nc2ccccn2)cc1` [Example 4z, (R)-4-((8-chloro-3-methyl-2,5-dioxo-2,3-dihydro-1H-benzo[e][1,4]diazepin-4(5H)-yl)methyl)-N-(pyridin-2-yl)benzamide] the IC50 was < 100 nM. For `COc1cnc(NC(=O)c2ccc(CN3C(=O)c4ccc(Cl)cc4NC(=O)[C@H]3Cc3ccccn3)cc2)nc1` [Example 5a, (R)-4-((8-chloro-2,5-dioxo-3-(pyridin-2-ylmethyl)-2,3-dihydro-1H-benzo[e][1,4]diazepin-4(5H)-yl)methyl)-N-(5-methoxypyrimidin-2-yl)benzamide], the IC50 was < 100 nM. For `O=C(Nc1ncccc1F)c1ccc(CN2C(=O)c3ccc(Cl)cc3NC(=O)[C@H]2Cc2ccccn2)cc1Cl` [Example 5ac, (R)-2-chloro-4-((8-chloro-2,5-dioxo-3-(pyridin-2-ylmethyl)-2,3-dihydro-1H-benzo[e][1,4]diazepin-4(5H)-yl)methyl)-N-(3-fluoropyridin-2-yl)benzamide], the IC50 was < 100 nM. With `Cc1cnc(NC(=O)[C@H]2CC[C@H](CN3C(=O)c4ccc(Cl)cc4NC(=O)[C@H]3Cc3ccccn3)CC2)nc1` [Example 5ad, (1R,4r)-4-(((R)-8-chloro-2,5-dioxo-3-(pyridin-2-ylmethyl)-2,3-dihydro-1H-benzo[e][1,4]diazepin-4(5H)-yl)methyl)-N-(5-methylpyrimidin-2-yl)cyclohexanecarboxamide] the IC50 was < 100 nM. `Cc1cnc(NC(=O)c2ccc(CN3C(=O)c4ccc(Cl)cc4NC(=O)[C@H]3Cc3ccccn3)cc2C)nc1` [Example 5ag, (R)-4-((8-chloro-2,5-dioxo-3-(pyridin-2-ylmethyl)-2,3-dihydro-1H-benzo[e][1,4]diazepin-4(5H)-yl)methyl)-2-methyl-N-(5-methylpyrimidin-2-yl)benzamide] was tested, and the IC50 was < 100 nM. For `O=C(Nc1ccc(F)cn1)c1ccc(CN2C(=O)c3ccc(Cl)cc3NC(=O)[C@H]2Cc2ccccn2)cc1Cl` [Example 5ao, (R)-2-chloro-4-((8-chloro-2,5-dioxo-3-(pyridin-2-ylmethyl)-2,3-dihydro-1H-benzo[e][1,4]diazepin-4(5H)-yl)methyl)-N-(5-fluoropyridin-2-yl)benzamide], the IC50 was < 100 nM. With `Cc1cc(CN2C(=O)c3ccc(Cl)cc3NC(=O)[C@H]2Cc2ccccn2)ccc1C(=O)Nc1ccc(F)cn1` [Example 5ap, (R)-4-((8-chloro-2,5-dioxo-3-(pyridin-2-ylmethyl)-2,3-dihydro-1H-benzo[e][1,4]diazepin-4(5H)-yl)methyl)-N-(5-fluoropyridin-2-yl)-2-methylbenzamide] the IC50 was < 100 nM. For `COc1cc(CN2C(=O)c3ccc(Cl)cc3NC(=O)[C@H]2Cc2ccccn2)ccc1C(=O)Nc1ccc(F)cn1` [Example 5aq, (R)-4-((8-chloro-2,5-dioxo-3-(pyridin-2-ylmethyl)-2,3-dihydro-1H-benzo[e][1,4]diazepin-4(5H)-yl)methyl)-N-(5-fluoropyridin-2-yl)-2-methoxybenzamide], the IC50 was < 100 nM. `C[C@@H]1C(=O)Nc2cc(Cl)ccc2C(=O)N1Cc1ccc(C(=O)Nc2ccc(C(F)(F)F)cn2)c(Br)c1` [Example 5ar, (R)-2-bromo-4-((8-chloro-3-methyl-2,5-dioxo-2,3-dihydro-1H-benzo[e][1,4]diazepin-4(5H)-yl)methyl)-N-(5-(trifluoromethyl)pyridin-2-yl)benzamide] showed an IC50 of 1000 to 10000 nM. In the case of `Cc1cnc(NC(=O)c2ccc(CN3C(=O)c4ccc(Cl)cc4NC(=O)[C@H]3Cc3ccccn3)cc2Cl)nc1` [Example 5as, (R)-2-chloro-4-((8-chloro-2,5-dioxo-3-(pyridin-2-ylmethyl)-2,3-dihydro-1H-benzo[e][1,4]diazepin-4(5H)-yl)methyl)-N-(5-methylpyrimidin-2-yl)benzamide], the IC50 is reported as < 100 nM. `Cc1cc(CN2C(=O)c3ccc(Cl)cc3NC(=O)[C@H]2Cc2ccccn2)ccc1C(=O)Nc1ccc(C#N)cn1` [Example 5at, (R)-4-((8-chloro-2,5-dioxo-3-(pyridin-2-ylmethyl)-2,3-dihydro-1H-benzo[e][1,4]diazepin-4(5H)-yl)methyl)-N-(5-cyanopyridin-2-yl)-2-methylbenzamide] was tested, and the IC50 was < 100 nM. In the case of `N#Cc1ccc(NC(=O)c2ccc(CN3C(=O)c4ccc(Cl)cc4NC(=O)[C@H]3Cc3ccccn3)cc2Cl)nc1` [Example 5au, (R)-2-chloro-4-((8-chloro-2,5-dioxo-3-(pyridin-2-ylmethyl)-2,3-dihydro-1H-benzo[e][1,4]diazepin-4(5H)-yl)methyl)-N-(5-cyanopyridin-2-yl)benzamide], the IC50 is reported as < 100 nM. With `CS(=O)(=O)c1ccc(NC(=O)c2ccc(CN3C(=O)c4ccc(Cl)cc4NC(=O)[C@H]3Cc3ccccn3)cc2Cl)nc1` [Example 5av, (R)-2-chloro-4-((8-chloro-2,5-dioxo-3-(pyridin-2-ylmethyl)-2,3-dihydro-1H-benzo[e][1,4]diazepin-4(5H)-yl)methyl)-N-(5-(methylsulfonyl)pyridin-2-yl)benzamide] the IC50 was < 100 nM.
